From US20070191267A1, “Use of tyrosine kinase inhibitors for treating cerebral ischemia” (AB SCIENCE, priority 2003, published 2007)

Biological target: T1, c-kit (Homo sapiens, UniProt P10721)
T1 construct: purified intracellular domain of c-kit expressed in baculovirus; made in house
Test: In vitro TK inhibition assay (ELISA, phosphorylation of tyrosine containing target peptide)
Assay type: biochemical
Conditions: purified intracellular domain of c-kit expressed in baculovirus
Experimental: in Vitro TK Inhibition Assays
Experiments were performed using purified intracellular domain of c-kit expressed in baculovirus. Estimation of the kinase activity was assessed by the phosphorylation of tyrosine containing target peptide estimated by established ELISA assay.

T1 sequence (P10721 546-976 limits assumed): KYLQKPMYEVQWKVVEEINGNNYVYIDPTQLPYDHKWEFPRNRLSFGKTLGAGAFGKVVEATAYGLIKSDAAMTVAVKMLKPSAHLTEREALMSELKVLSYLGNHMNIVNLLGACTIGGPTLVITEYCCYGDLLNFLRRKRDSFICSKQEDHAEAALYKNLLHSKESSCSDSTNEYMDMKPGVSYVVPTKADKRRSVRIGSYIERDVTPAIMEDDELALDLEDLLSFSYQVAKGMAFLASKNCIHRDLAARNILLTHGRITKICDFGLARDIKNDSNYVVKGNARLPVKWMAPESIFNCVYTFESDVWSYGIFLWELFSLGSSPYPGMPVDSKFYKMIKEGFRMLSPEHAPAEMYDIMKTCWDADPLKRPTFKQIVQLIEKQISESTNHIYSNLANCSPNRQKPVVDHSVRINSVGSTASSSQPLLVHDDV

IC50 | Compound
< 10 µM | Cc1ccc(NC(=O)Nc2ccccc2F)cc1Nc1nc(-c2cccnc2)cs1 [Compound 023, 1-(2-Fluoro-phenyl)-3-[4-methyl-3-(4-pyridin-3-yl-thiazol-2-ylamino)-phenyl]-urea]
< 10 µM | Cc1ccc(NC(=O)c2ccc(-c3ccncc3)cc2)cc1Nc1nc(-c2cccnc2)cs1 [Compound 053]
< 10 µM | Cc1ccc(NC(=O)c2cccc(C(F)(F)F)c2F)cc1Nc1nc(-c2cccnc2)cs1 [Compound 055, 2-Fluoro-N-[4-methyl-3-(4-pyridin-3-yl-thiazol-2-ylamino)-phenyl]-3-trifluoromethyl-benzamide]
< 10 µM | Cc1ccc(NC(=O)c2ccc(CN3CCN(C)CC3)c(F)c2)cc1Nc1nc(-c2cccnc2)cs1 [Compound 074, 3-Fluoro-4-(4-methyl-piperazin-1-ylmethyl)-N-[4-methyl-3-(4-pyridin-3-yl-thiazol-2-ylarnino)-phenyl]-benzamide]

Test system: not given
Test: not given
Conditions: not given

Compound | melting point
Cc1ccc(NC(=O)Nc2ccccc2F)cc1Nc1nc(-c2cccnc2)cs1 [Compound 023, 1-(2-Fluoro-phenyl)-3-[4-methyl-3-(4-pyridin-3-yl-thiazol-2-ylamino)-phenyl]-urea] | 203 to 206 °C
Cc1ccc(NC(=O)Nc2cccc(F)c2)cc1Nc1nc(-c2cccnc2)cs1 [Compound 025, 1-(3-Fluoro-phenyl)-3-[4-methyl-3-(4-pyridin-3-yl-thiazol-2-ylamino)-phenyl]-urea] | 210 to 215 °C
Cc1ccc(NC(=O)Nc2ccc(C)c(Nc3nc(-c4cccnc4)cs3)c2)cc1 [Compound 026, 3-[4-Methyl-3-(4-pyridin-3-yl-thiazol-2-ylamino)-phenyl]-3-p-tolyl-urea] | 238 to 240 °C
Cc1ccc(NC(=O)c2ccc(NS(=O)(=O)c3cccs3)cc2)cc1Nc1nc(-c2cccnc2)cs1 [Compound 044, N-[4-Methyl-3-(4-pyridin-3-yl-thiazol-2-ylamino)-phenyl]-4-(thiophene-2-sulfonylamino)-benzamide] | 230 to 233 °C
Cc1ccc(NC(=O)c2cccc(F)c2)cc1Nc1nc(-c2cccnc2)cs1 [Compound 045, 3-Fluoro-N-[4-methyl-3-(4-pyridin-3-yl-thiazol-2-ylamino)-phenyl]-benzamide] | 184 to 186 °C
Cc1ccc(NC(=O)c2ccc(-c3ccncc3)cc2)cc1Nc1nc(-c2cccnc2)cs1 [Compound 046, N-[4-Methyl-3-(4-pyridin-3-yl-thiazol-2-ylamino)-phenyl]-4-pyridin-4-yl-benzamide] | 254 to 256 °C
Cc1ccc(NC(=O)c2ccc(N(C)C)cc2)cc1Nc1nc(-c2cccnc2)cs1 [Compound 047, 4-Dimethylamino-N-[4-methyl-3-(4-pyridin-3-yl-thiazol-2-ylamino)-phenyl]-benzamide] | 147 to 150 °C

The remaining lines, values ahead:

melting point | Compound
103 to 106 °C | Cc1ccc(F)c(C(=O)Nc2ccc(C)c(Nc3nc(-c4cccnc4)cs3)c2)c1 [Compound 048, 2-Fluoro-5-methyl-N-[4-methyl-3-(4-pyridin-3-yl-thiazol-2-ylamino)-phenyl]-benzamide]
145 to 150 °C | Cc1ccc(NC(=O)c2ccc(C(C)(C)C)cc2)cc1Nc1nc(-c2cccnc2)cs1 [Compound 049, 4-tert-Butyl-N-[4-methyl-3-(4-pyridin-3-yl-thiazol-2-ylamino)-phenyl]-benzamide]
75 to 80 °C | Cc1ccc(NC(=O)c2cccc(OCCN3CCOCC3)c2)cc1Nc1nc(-c2cccnc2)cs1 [Compound 052, N-[4-Methyl-3-(4-pyridin-3-yl-thiazol-2-ylamino)-phenyl]-3-(2-morpholin-4-yl-ethoxy)-benzamide]
197 to 198 °C | Cc1ccc(NC(=O)c2cccc(N(C)C)c2)cc1Nc1nc(-c2cccnc2)cs1 [Compound 088, 3-Dimethylamino-N-[4-methyl-3-(4-pyridin-3-yl-thiazol-2-ylamino)-phenyl]-benzamide]
247 to 248 °C | Cc1ccc(NC(=O)c2cccc(N3CCOCC3)c2)cc1Nc1nc(-c2cccnc2)cs1 [Compound 090, N-[4-Methyl-3-(4-pyridin-3-yl-thiazol-2-ylamino)-phenyl]-3-morpholin-4-yl-benzamid]
116 to 120 °C | Cc1ccc(NC(=O)CCCN2CCOCC2)cc1Nc1nc(-c2cccnc2)cs1 [Compound 096, N-[4-Methyl-3-(4-pyridin-3-yl-thiazol-2-ylamtino)-phenyl]-4-morpholin-4-yl-butyramide]
